Literature values as cited in patent US20080188528A1, “Modulators of C3a receptor and methods of use thereof” (priority 2006, published 2008).

Conditions: cited from earlier work

Compound: NC(N)=NCCC[C@H](NC(=O)COCC(c1ccccc1)c1ccccc1)C(=O)O [SB-290157]
- airway inflammation (asthma model): reduction of airway inflammation
- neutrophil recruitment (in vivo): inhibition of neutrophil recruitment
- paw edema (in vivo): decreased paw edema
